Consider 19 compounds from US8003785B2 (Takeda Pharmaceutical Company Limited, priority 2008, dated 2011).

pIC50: −log10 of the molar value.

The target of the first assay is T1, PLK1 (Homo sapiens, UniProt P53350).
T1 construct: Full-length, active GST-PLK1 is purified from Sf9 insect cells; made in house; host or cells: Sf9 insect cells
T1 sequence (P53350 whole entry): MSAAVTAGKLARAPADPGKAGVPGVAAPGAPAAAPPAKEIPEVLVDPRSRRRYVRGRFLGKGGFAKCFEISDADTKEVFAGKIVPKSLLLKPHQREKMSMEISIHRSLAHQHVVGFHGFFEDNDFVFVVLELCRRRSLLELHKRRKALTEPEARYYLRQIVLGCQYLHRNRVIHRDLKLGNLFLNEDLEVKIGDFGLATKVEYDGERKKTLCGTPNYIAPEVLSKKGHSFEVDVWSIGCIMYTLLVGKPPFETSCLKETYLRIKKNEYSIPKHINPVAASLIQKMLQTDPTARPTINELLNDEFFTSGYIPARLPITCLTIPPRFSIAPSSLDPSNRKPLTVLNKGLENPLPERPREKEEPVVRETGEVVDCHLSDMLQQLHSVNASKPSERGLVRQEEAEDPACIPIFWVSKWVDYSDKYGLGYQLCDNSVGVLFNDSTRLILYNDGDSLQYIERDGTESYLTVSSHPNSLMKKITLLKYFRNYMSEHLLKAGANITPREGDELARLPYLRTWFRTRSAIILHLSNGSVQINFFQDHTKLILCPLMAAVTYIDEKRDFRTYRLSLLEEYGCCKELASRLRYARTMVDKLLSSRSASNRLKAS
The assay is described as follows: Biochemical Characterization Assay: HTRF kinase assay, GST-PLK1 phosphorylation of GST-p53. To be noted: GST-PLK1, GST-p53 substrate. The gist of the method: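 Full-length active GST-PLK1 (Sf9, 3 ug/mL) phosphorylated full-length GST-p53 (E. coli) in Kinase Assay Buffer for 35 min at 37 °C. Stopped with EDTA; phospho-p53 detected by HTRF with anti-phospho-p53, Eu-anti-rabbit and APC-anti-GST antibodies.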
For `COc1cc(C(=O)O)ccc1Nc1ncc2c(n1)N(CCCc1ccccc1)CC(F)(F)C(=O)N2C` [Example I-281, 4-[7,7-difluoro-5-methyl-6-oxo-9-(3-phenyl-propyl)-6,7,8,9-tetrahydro-5H-pyrimido[4,5-b][1,4]diazepin-2-ylamino]-3-methoxy-benzoic acid], the pIC50 is 6.30 to 7.29.
The same measure, in the same setting: as for `CNC(=O)c1ccc(Nc2ncc3c(n2)N(CCCc2ccccc2)CC(F)(F)C(=O)N3C)c(OC)c1` [Example I-284, 4-[7,7-difluoro-5-methyl-6-oxo-9-(3-phenyl-propyl)-6,7,8,9-tetrahydro-5H-pyrimido[4,5-b][1,4]diazepin-2-ylamino]-3-methoxy-N-methyl-benzamide], the figure is 6.30 to 7.29; as for `CCc1cc(C(=O)NCCCN(C)C)ccc1Nc1ncc2c(n1)N(C1CCCC1)CC(F)(F)C(=O)N2C` [Example I-199, 4-(9-cyclopentyl-7,7-difluoro-5-methyl-6-oxo-6,7,8,9-tetrahydro-5H-pyrimido[4,5-b][1,4]diazepin-2-ylamino)-N-(3-dimethylamino-propyl)-3-ethyl-benzamide], 7.30 to 9.00.
For `COc1cc(C(=O)NCCCN(C)C)ccc1Nc1ncc2c(n1)N(CCc1ccccc1)CC(F)(F)C(=O)N2C` [Example I-279, 4-(7,7-difluoro-5-methyl-6-oxo-9-phenethyl-6,7,8,9-tetrahydro-5H-pyrimido[4,5-b][1,4]diazepin-2-ylamino)-N-(3-dimethylamino-propyl)-3-methoxy-benzamide], the pIC50 is 6.30 to 7.29.
Turning to `CCc1cc(C(=O)NC2CCN(CC)CC2)ccc1Nc1ncc2c(n1)N(C1CCCC1)CC(F)(F)C(=O)N2C` [Example I-196, 4-(9-cyclopentyl-7,7-difluoro-5-methyl-6-oxo-6,7,8,9-tetrahydro-5H-pyrimido[4,5-b][1,4]diazepin-2-ylamino)-3-ethyl-N-(1-ethyl-piperidin-4-yl)-benzamide], the pIC50 is 7.30 to 9.00.
`CNC(=O)c1ccc(Nc2ncc3c(n2)N(C2CCCCC2)CC(F)(F)C(=O)N3C)cc1` [Example I-258, 4-(9-cyclohexyl-7,7-difluoro-5-methyl-6-oxo-6,7,8,9-tetrahydro-5H-pyrimido[4,5-b][1,4]diazepin-2-ylamino)-N-methyl-benzamide] gave a pIC50 of 7.30 to 9.00.
For the compound `COc1cc(C(=O)NC2CCN(C)CC2)ccc1Nc1ncc2c(n1)N(CCc1cccs1)CC(F)(F)C(=O)N2C` [Example I-270, 4-[7,7-difluoro-5-methyl-6-oxo-9-(2-thiophen-2-yl-ethyl)-6,7,8,9-tetrahydro-5H-pyrimido[4,5-b][1,4]diazepin-2-ylamino]-3-methoxy-N-(1-methyl-piperidin-4-yl)-benzamide], the pIC50 is 7.30 to 9.00.
Same read-out and setting: as for `CN1CCC(NC(=O)c2ccc(Nc3ncc4c(n3)N(C3CCCC3)CC(F)(F)C(=O)N4C)c(Cl)c2)CC1` [Example I-179, 3-chloro-4-(9-cyclopentyl-7,7-difluoro-5-methyl-6-oxo-6,7,8,9-tetrahydro-5H-pyrimido[4,5-b][1,4]diazepin-2-ylamino)-N-(1-methyl-piperidin-4-yl)-benzamide], the figure is 7.30 to 9.00; as for `COc1cc(C(N)=O)ccc1Nc1ncc2c(n1)N(CCc1cccs1)CC(F)(F)C(=O)N2C` [Example I-271, 4-[7,7-difluoro-5-methyl-6-oxo-9-(2-thiophen-2-yl-ethyl)-6,7,8,9-tetrahydro-5H-pyrimido[4,5-b][1,4]diazepin-2-ylamino]-3-methoxy-benzamide], 6.30 to 7.29.
As for `CCc1cc(C(=O)NCCN(C)C)ccc1Nc1ncc2c(n1)N(C1CCCC1)CC(F)(F)C(=O)N2C` [Example I-198, 4-(9-cyclopentyl-7,7-difluoro-5-methyl-6-oxo-6,7,8,9-tetrahydro-5H-pyrimido[4,5-b][1,4]diazepin-2-ylamino)-N-(2-dimethylamino-ethyl)-3-ethyl-benzamide], the pIC50 is 7.30 to 9.00.

Staying with this assay, now noted: GST-PLK1, GST-p53 substrate, ATP.
The compound `CNC(=O)c1ccc(Nc2ncc3c(n2)N(C2CCCC2)CC(F)(F)C(=O)N3)c(OC)c1` [Example I-153, 4-(9-cyclopentyl-7,7-difluoro-6-oxo-6,7,8,9-tetrahydro-5H-pyrimido[4,5-b][1,4]diazepin-2-ylamino)-3-methoxy-N-methyl-benzamide] had a negative-log IC50 (pIC50) of 5.30 to 6.30.
Compound `CN1C(=O)C(F)(F)CN(C2CCC2)c2nc(Nc3ccc(C(=O)N4CCC(N)CC4)cc3)ncc21` [Example I-15, 2-[4-(4-amino-piperidine-1-carbonyl)-phenylamino]-9-cyclobutyl-7,7-difluoro-5-methyl-5,7,8,9-tetrahydro-pyrimido[4,5-b][1,4]diazepin-6-one] had a pIC50 of 6.30 to 7.29.
For the compound `CCN1C(=O)C(F)(F)CN(C2CCCC2)c2nc(Nc3ccc(C(=O)NC)cc3OC)ncc21` [Example I-158, 4-(9-cyclopentyl-5-ethyl-7,7-difluoro-6-oxo-6,7,8,9-tetrahydro-5H-pyrimido[4,5-b][1,4]diazepin-2-ylamino)-3-methoxy-N-methyl-benzamide], the pIC50 is 5.30 to 6.30.
On the same count and under the same terms, as for `COc1cc(C(=O)O)ccc1Nc1ncc2c(n1)N(C1CCC1)CC(F)(F)C(=O)N2C` [Example I-1, 4-(9-cyclobutyl-7,7-difluoro-5-methyl-6-oxo-6,7,8,9-tetrahydro-5H-pyrimido[4,5-b][1,4]diazepin-2-ylamino)-3-methoxy-benzoic acid], the figure is 7.30 to 9.00.
On to `CNC(=O)c1ccc(Nc2ncc3c(n2)N(C2CCC2)CC(F)(F)C(=O)N3C)cc1` [Example I-13, 4-(9-cyclobutyl-7,7-difluoro-5-methyl-6-oxo-6,7,8,9-tetrahydro-5H-pyrimido[4,5-b][1,4]diazepin-2-ylamino)-N-methyl-benzamide], for which the pIC50 is 6.30 to 7.29.
For `COc1cc(C(=O)NCc2cccnc2)ccc1Nc1ncc2c(n1)N(C1CCCC1)CC(F)(F)C(=O)N2C` [Example I-111, 4-(9-cyclopentyl-7,7-difluoro-5-methyl-6-oxo-6,7,8,9-tetrahydro-5H-pyrimido[4,5-b][1,4]diazepin-2-ylamino)-3-methoxy-N-pyridin-3-yl-methyl benzamide], the pIC50 was 7.30 to 9.00.
In turn, `COc1cc(C(=O)Nc2cccnc2)ccc1Nc1ncc2c(n1)N(C1CCCC1)CC(F)(F)C(=O)N2C` [Example I-130, 4-(9-cyclopentyl-7,7-difluoro-5-methyl-6-oxo-6,7,8,9-tetrahydro-5H-pyrimido[4,5-b][1,4]diazepin-2-ylamino)-3-methoxy-N-pyridin-3-yl-benzamide] had a pIC50 of 7.30 to 9.00.
On the same count and under the same terms, then `COc1cc(C(=O)NCCN(C)C)ccc1Nc1ncc2c(n1)N(C1CCC1)CC(F)(F)C(=O)N2C` [Example I-8, 4-(9-cyclobutyl-7,7-difluoro-5-methyl-6-oxo-6,7,8,9-tetrahydro-5H-pyrimido[4,5-b][1,4]diazepin-2-ylamino)-N-(2-dimethylamino-ethyl)-3-methoxy-benzamide], with 7.30 to 9.00; and `COc1cc(C(=O)NC2CCN(CCCS(C)(=O)=O)CC2)ccc1Nc1ncc2c(n1)N(C1CCCC1)CC(F)(F)C(=O)N2C` [Example I-76, 4-(9-cyclopentyl-7,7-difluoro-5-methyl-6-oxo-6,7,8,9-tetrahydro-5H-pyrimido[4,5-b][1,4]diazepin-2-ylamino)-N-[1-(3-methanesulfonyl-propyl)-piperidin-4-yl]-3-methoxy-benzamide], with 7.30 to 9.00.

One may read the pIC50 as the IC50 on a negative log10 scale, so that one unit is a factor of ten. Read a low pIC50 as a large IC50.
